Experimental data as given in patent US20070259933A1, “COMPOSITIONS, DOSAGE FORMS AND METHODS OF TREATING EMESIS” (XenoPort, Inc., priority 2006, published 2007).
Like-named read-outs stand apart in the source and are kept apart here.

How the values were obtained:
[1] = Regional gastrointestinal absorption of propofol prodrug; format: in vivo; conditions: oral; colon vs upper gastrointestinal tract
[2] = cited from earlier work
[3] = system: sedation / general anesthesia; conditions: in vivo; cited from earlier work
[4] = orally administered propofol; dose-normalized oral vs intravenous; cited from earlier work
[5] = oral dosing, rats; cited from earlier work
[6] = oral dose of 25-200 mg dolasetron
[7] = oral dose of 5-20 mg granisetron

**Q.** For `CC(C)c1cccc(C(C)C)c1OC(=O)OC[C@H](N)C(=O)O` [(S)-2-amino-3-(2,6-diisopropylphenoxycarbonyloxy)-propanoic acid], which gastrointestinal absorption [1] is on record?
**A.** limited colonic absorption

**Q.** For `O=C(O[C@@H]1C[C@@H]2C[C@H]3C[C@H](C1)N2CC3=O)c1c[nH]c2ccccc12` [dolasetron], which AUC [2, 6] is on record?
**A.** about 1,233 ng·mL·h^−1

**Q.** And the oral bioavailability [2, 6]?
**A.** 70-89%

**Q.** And the terminal elimination half-life [2, 6]?
**A.** 5 to 10 h

**Q.** For `CN1C2CCCC1CC(NC(=O)c1nn(C)c3ccccc13)C2` (stereo not shown) [granisetron], which AUC [2, 7] is on record?
**A.** 83 to 350 ng·mL/h

**Q.** And the maximum plasma concentration [2, 7]?
**A.** 14 to 68 ng/mL

**Q.** What about the terminal elimination half-life [2, 7] of the same compound?
**A.** 1.5 to 5.7 h

**Q.** Which AUC ([2]; oral dose of 8 mg ondansetron) does the source give for `Cc1nccn1CC1CCc2c(c3ccccc3n2C)C1=O` (stereo not shown) [ondansetron] here?
**A.** 101 to 351 ng·mL/h

**Q.** And the maximum plasma concentration ([2]; oral dose of 8 mg ondansetron)?
**A.** 20 to 52 ng/mL

**Q.** What about the oral bioavailability ([2]; oral dose of 8 mg ondansetron) of the same compound?
**A.** 48-75%

**Q.** And the terminal elimination half-life ([2]; oral dose of 8 mg ondansetron)?
**A.** 2.5 to 6.2 h

**Q.** For `CC(C)c1cccc(C(C)C)c1O` [propofol, 2,6-diisopropylphenol], which “propofol plasma concentrations needed for sedation” value [3] is on record?
**A.** 1,500-2,000 ng/mL

**Q.** What about the “propofol plasma concentrations needed for the maintenance of general anesthesia” value [3] of the same compound?
**A.** 3,000-10,000 ng/mL

**Q.** And the absolute oral bioavailability [4]?
**A.** less than 2%

**Q.** And the “fraction of administered drug undergoing first pass metabolism” value [5]?
**A.** approximately 90%

**Q.** For `CN1[C@@H]2CC[C@H]1C[C@@H](OC(=O)c1c[nH]c3ccccc13)C2` [tropisetron], which AUC ([2]; oral dose of 5 mg tropisetron) is on record?
**A.** about 230 ng·mL·h^−1

**Q.** What about the maximum plasma concentration ([2]; oral dose of 5 mg tropisetron) of the same compound?
**A.** about 22 ng/mL

**Q.** And the oral bioavailability ([2]; oral dose of 5 mg tropisetron)?
**A.** 60-99%

**Q.** What about the terminal elimination half-life ([2]; oral dose of 5 mg tropisetron) of the same compound?
**A.** 8.6 h
